Results on nine molecules are retold here after patent US9101138B2, “Methods and compositions utilizing lactams derived from camphor, verbenone or cat thyme oil for repelling blood-sucking and biting insects, ticks and mites” (The United States of America, as represented by the …, priority 2013, dated 2015).

Holding throughout (format): in vivo
Assay [1] deals with Sand Fly (Phlebotomus papatasi). Put plainly: Sand fly blood-feeding assay for testing repellents and feeding deterrents. The conditions noted are these: 2 h; for Mean % Feeding / Mean % Inhibition: n = 3; for effectiveness (comparison between compounds): sand fly blood feeding. The text has this:
Sand Fly (Phlebotomus papatasi) blood-feeding assay for testing repellents and feeding deterrents: A pig intestine-based membrane feeing system (Watnaporn, D., et al., Proceedings of VIIIth Sir Dorabjee Tata International Symposium: Arthropod born viral infections-Current status and research, Pages 417-424, 2008) has been used for blood-feeding of female sand flies in colony maintenance. The same technique has been used for testing repellency and antifeeding effects of several new compounds. A circular area of the fabric mesh on top of the test container that matches the size of the glass feeder was treated with the test compound by applying the test solution using a Q-tip. After a group of 30 females and 15 males was placed into the test container, a glass feeder filled with cow blood was placed on top of the treated area in the center of the fabric mesh that was secured on top of the container. Sand flies were allowed to feed for 2 h before the number of blood-fed females was in each feeding container counted.
Female sand flies in the untreated control achieved a 32% to 61% blood feeding rate during the test period (2 h) when a group of 30 females and 15 males was placed in a feeding pot and fed through a fine mesh screen using an artificial membrane feeding system (Table 1 [?]).

Another assay concerns Aedes aegypti. Put plainly: Free choice assay against mosquitoes (feeding deterrence assay in glove box). The conditions noted are these: treated membrane over human blood, 20 min; for EC50: median effective dose to repel 50% of mosquitoes. How it is done:
Free Choice Assay against mosquitoes (compact repellency): Mosquitoes used were nulliparous female Aedes aegypti (Red eye Liverpool strain). They were laboratory-reared and maintained at 27° C. and 80% RH under a photoperiod of 12:12 (L:D) h by using standard mosquito rearing procedures (Rutledge, C. C., et al., J. Med. Entomol., 14: 536-541 (1978)). Larvae were fed a diet of ground tropical fish flakes and adults were fed a 10% sucrose solution. Adult female mosquitoes used for experimentation were between 5 and 15 d old and starved (provided only water) for 24 h before testing. The test system consisted of a mosquito blood-feeder, a constant-temperature water circulator (to maintain the temperature of the blood at 37° C.) and a specially designed cage. The mosquito blood-feeder contained five circular blood reservoirs, each of which was filled with outdated human blood titrated with adenosine triphosphate. The wells were then covered with sausage membrane and secured using high vacuum grease. Absolute ethanol was used as a solvent and diluent for candidate repellents. Each diluted repellent solution was then randomly applied to the membrane surface at concentrations of 0.02, 0.04, 0.08 and 0.16 mg/cm^2. A separate membrane covered well served as a control. 250 mosquitoes were exposed to the treated membranes on the blood reservoirs ad libitum by opening the sliding door in the floor of the test cage. The number of mosquitoes feeding on each well was counted and noted at two-minute intervals for 20 minutes using the total number of feeding mosquitoes as a response. Each test was replicated for a minimum of four times to obtain a statistically valid sample size for analysis. The median effective dose to repel 50% of the mosquito test population was then calculated by the method of Goldstein (Goldstein, A., et al., 1974. Principles of Drug Action: The Basis of Pharmacology, 2nd ed., John Wiley and Sons, New York, N.Y., 854 p) (chemical sensitivity levels calculated from the dose-response regression equation) for single curves with graded responses. Significant differences were then determined by comparing the 95% confidence level among effective doses.

A further assay relates to Aedes aegypti females. Put plainly: Feeding deterrency assay utilising K&D module. The conditions noted are these: 25 nmol\cm^2. As for the experimental part: Feeding Deterrency assay utilising K&D module (Klun, J. A., and M. Debboun, J. Med. Entomol., 37: 177-181 (2000); Klun, J. A., et al., 40: 293-299 (2003)): Test compounds were bioassayed for their feeding deterrency against Aedes aegypti females in K&D module assay. […] Feeding deterrency was evaluated as proportion feeding. Ethanol was used as control.

The test system of assay [2] is adult lone star ticks, Amblyomma americanum. Put plainly: Tick repellency: vertical filter paper bioassay. The note with it: for % repelled: ticks exposed 10-15 minutes after application. How it is done: Tick repellency: Vertical filter paper bioassay against adult lone star ticks, Amblyomma americanum, and nymphs was conducted with selected lactams, lactones and ketones. Adult ticks were exposed 10-15 minutes after application of the candidate compounds. Repellency was measured in % repelled from the treated surface at various concentrations.

As to `CC12CCC(CNC1=O)C2(C)C` (centres unmarked) [Compound 1, Camphor lactam], the “Mean % Feeding” value was 6.7% in assay [1] (concentration 0.00001%), 3.3% in assay [1] (concentration 0.0001%), 2.2% in assay [1] (concentration 0.001%) and 0.0% in assay [1] (concentration 0.01%). For the same molecule, the “Mean % Inhibition” value is given as 90.9% in assay [1] (concentration 0.00001%), 95.5% in assay [1] (concentration 0.0001%), 97.0% in assay [1] (concentration 0.001%) and 100.0% in assay [1] (concentration 0.01%). The EC50 in the assay with Aedes aegypti is on record as 0.0355 mg/cm^2. The same molecule showed an EC95 in the assay with Aedes aegypti of 0.166 mg/cm^2. Moreover, the “% not biting” value in the assay with Aedes aegypti females is 91%. Besides, the “mean bites\6” value with Aedes aegypti females is recorded as 0.55. Moreover, in the assay with Aedes aegypti females, the “total Bites\120” value stood at 11. Also, the “% repelled” value in assay [2] (Conc. 125 ug) was 26.7%; in assay [2] (Conc. 500 ug) it was 66.7%; in assay [2] (Conc. 2000 ug), 73.3%.
As for `CCCN1CC2CCC(C)(C1=O)C2(C)C` (centres unmarked) [Compound 1a, N-propyl camphor lactam], the “Mean % Feeding” value in assay [1] (concentration 0.00001%) is reported as 5.6%; in assay [1] (concentration 0.0001%), 6.7%; in assay [1] (concentration 0.001%), 1.1%; in assay [1] (concentration 0.01%), 0.0%. Further, the “Mean % Inhibition” value in assay [1] (concentration 0.00001%) came to 92.4%; in assay [1] (concentration 0.0001%), 90.9%; in assay [1] (concentration 0.001%), 98.5%; in assay [1] (concentration 0.01%) it was 100.0%. Further, the EC50 in the assay on Aedes aegypti is given as 0.0282 mg/cm^2. This molecule had an EC95 in the assay on Aedes aegypti of 0.102 mg/cm^2. Further, in the assay on Aedes aegypti females, the “% not biting” value is given as 96%. Also, in the assay on Aedes aegypti females, the “mean bites\6” value was determined as 0.25. The “total Bites\120” value in the assay with Aedes aegypti females is listed as 5. The “% repelled” value in assay [2] (Conc. 125 ug) turned out to be 26.7%; in assay [2] (Conc. 500 ug), 100%; in assay [2] (Conc. 2000 ug), 93.3%.
`C=C1CNC(=O)C2C(C)CCC12` (centres unmarked) [Compound 3, Dolicho (C) lactam]: the “effectiveness (comparison between compounds)” value in assay [1] was “more effective than dolicholactone”. In the assay with Aedes aegypti, the EC50 came out at 0.0322 mg/cm^2 and the EC95 stood at 0.173 mg/cm^2. In the assay with Aedes aegypti females, the “% not biting” value came out at 92%, the “mean bites\6” value is given as 0.5 and the “total Bites\120” value is 10.
As to `C=C1CN(CCC)C(=O)C2C(C)CCC12` (centres unmarked) [Compound 3a, N-propyl dolicho-C-lactam], the “Mean % Feeding” value amounted to 25.6% in assay [1] (concentration 0.001%), 17.8% in assay [1] (concentration 0.01%), 8.9% in assay [1] (concentration 0.02%) and 5.6% in assay [1] (concentration 0.04%). Moreover, the “Mean % Inhibition” value in assay [1] (concentration 0.001%) is listed as 65.1%; in assay [1] (concentration 0.01%), 75.8%; in assay [1] (concentration 0.02%), 87.9%; in assay [1] (concentration 0.04%), 92.4%. In assay [1], the “effectiveness (comparison between compounds)” value is on record as “more effective than dolicholactam”. Also, the EC50 in the assay on Aedes aegypti came out at 0.0317 mg/cm^2. In the assay on Aedes aegypti, this molecule displayed an EC95 of 0.117 mg/cm^2. For the same molecule, the “% not biting” value with Aedes aegypti females is recorded as 98%. The “mean bites\6” value in the assay on Aedes aegypti females amounted to 0.15. For the same molecule, the “total Bites\120” value in the assay with Aedes aegypti females is 3. Also, the “% repelled” value turned out to be 20% in assay [2] (Conc. 63 ug), 83.6% in assay [2] (Conc. 125 ug), 100% in assay [2] (Conc. 500 ug) and 100% in assay [2] (Conc. 2000 ug).
`C=C1COC(=O)[C@H]2[C@@H]1CC[C@@H]2C` [Compound 5, Dolicholactone (C)]: in the assay with Aedes aegypti females, the “% not biting” value turned out to be 89%, the “mean bites\6” value came to 0.7 and the “total Bites\120” value came out at 14.
On the same counts, the results for `C=C1C(=O)OC[C@H]2[C@@H]1CC[C@@H]2C` [Compound 6, Dolicho lactone (D)] are 87%, 0.8 and 16.
Turning to `CC(C)=CCCC(C)C1C=CC(=O)CC1` (centres unmarked) [Compound 7a, 4-(1,5-Dimethylhex-4-enyl)cyclohex-2-en-1-one], the “% repelled” value amounted to 20% in assay [2] (Conc. 31 ug); 53.3% in assay [2] (Conc. 63 ug); 73.3% in assay [2] (Conc. 125 ug); 96.7% in assay [2] (Conc. 500 ug); 82.5% in assay [2] (Conc. 2000 ug). Moreover, in assay [2] (filter paper bioassay), the “lowest concentration at which adult ticks were repelled” value was 31 µg.
In the case of `CCN(CC)C(=O)c1cccc(C)c1` [DEET, N,N-diethyl-m-toluamide, reference compound], in the assay on Aedes aegypti females, the “% not biting” value is 94%, the “mean bites\6” value turned out to be 0.4 and the “total Bites\120” value came to 8. For the same molecule, the “% repelled” value in assay [2] (Conc. 125 ug) is given as 5%. The “% repelled” value in assay [2] (Conc. 500 ug) came to 68.3%. For the same molecule, in assay [2] (Conc. 2000 ug), the “% repelled” value is given as 95.7%. For the same molecule, in assay [2] (at 125 and 64 ug concentrations), the repellency entry was “failed to repel ticks”.
Regarding “N-propyl dihydro verbenone lactam [Compound 2a]”, in the assay on Aedes aegypti, the EC50 is recorded as 0.0561 mg/cm^2 and the EC95 came out at 0.264 mg/cm^2. Also, in the assay with Aedes aegypti females, the “% not biting” value amounted to 92%, the “mean bites\6” value turned out to be 0.5 and the “total Bites\120” value came out at 10.
